# Source: paper PMC3091653, “A new family of phosphoinositide phosphatases in microorganisms: identification and biochemical analysis” (BMC Genomics, 2010)
# Target: T1, LM1 (Leishmania major, UniProt Q4QBX1)
# T1 construct: gene LMJF_22_0250; pET14, His6-tagged (kept), frame shift of original clone removed by mutagenesis; E. coli BL21 (DE3)
# Experiment: malachite green phosphate release
# Format: biochemical
# Conditions: pH 6, 37°C, 100-125 μM substrate
# T1 sequence (Q4QBX1 entry or part of it): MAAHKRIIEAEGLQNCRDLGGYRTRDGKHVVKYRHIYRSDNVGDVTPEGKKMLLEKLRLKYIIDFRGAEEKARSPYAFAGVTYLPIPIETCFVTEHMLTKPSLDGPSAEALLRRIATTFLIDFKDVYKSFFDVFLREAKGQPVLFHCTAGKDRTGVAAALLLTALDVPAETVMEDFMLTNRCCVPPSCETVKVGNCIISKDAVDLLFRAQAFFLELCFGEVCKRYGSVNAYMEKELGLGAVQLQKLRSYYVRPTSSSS
smiles,measurement,value
CCCCCCCC(=O)OC[C@H](COP(=O)(O)O[C@@H]1[C@H](O)[C@H](OP(=O)(O)O)[C@@H](O)[C@H](O)[C@H]1O)OC(=O)CCCCCCC [diC8-PI(3)P],malachite green phosphate release,Both Lmo1935 and LM1 show also activity towards mono-phosphorylated PIs
